Assay results: US4044134A, “Fused pyrimidin-4(3H)-ones as antiallergy agents” (Pfizer Inc., priority 1976, dated 1977)
Where two headings read alike, the source gives them in different places.

Key:
[1] = system: passive cutaneous anaphylaxis (PCA) reaction; assay: passive cutaneous anaphylaxis (PCA) test, i.v. or oral administration; format: in vivo, male Charles River Wistar rats
Description: In the PCA test, normal animals are injected intradermally (i.d.) with antibodies contained in serum obtained from actively sensitized animals. The animals are then challenged intravenously with antigen mixed with a dye such as Evans' Blue. The increased capillary-permeability caused by the antigen-antibody reaction causes the dye to leak from the site of the antibody injection. The test animals are then asphyxiated and the intensity of the reaction determined by measuring the diameter and intensity of the blue coloration on the inner surface of the animals skin. […] The ability of agents to interfere with PCA reactions is measured in male Charles River Wistar rats, 170-210 g. […] Hyperimmune antisera to hen egg albumin is prepared according to Orange, et al., J. Exptl. […] Forty-eight hours prior to antigen challenge the reaginic antisera is injected intradermally (i.d.) into the shaved skin of a normal rat's back; 5 hours before challenge the hyperimmune antisera is similarly injected; 5 hours later, at a third site, 60 mcg. histamine dihydrochloride is injected i.d. as a check for antihistaminic and unspecific types of blockage; the compounds of the instant invention or saline are then administered i.v. and immediately followed by 2.5 mg. Evan's blue dye and 5 mg. egg albumin in saline. In the case of oral administration Evan's blue dye and egg albumen are given five minutes after administration of the drug. Thirty minutes later the animals are asphyxiated using chloroform and the skin of the back removed and reversed for observation. A score is assigned each injection site equal to the product of the diameter of the site in mm. and a grade of 0.1, 0.5, 1, 2, 3 or 4 proportional to intensity of dye coloration. The scores for a given injection site are summed for each group of 8 animals and compared to the saline treated controls. The difference is expressed as percent blockade due to the compound employed. […] Disodium cromoglycate, a commerial antiallergy agent, is included for comparison. [drawing 3]

bronchi = details: in vivo; cited from earlier work
PCA reaction = PCA reaction test after aerosol administration (nebulizer); format: in vivo, rats
[2] = hypotension and bradycardia in dogs; format: in vivo
[3] = intravenous toxicity in mice
bronchial asthma = details: in vivo; cited from earlier work
[4] = Rattus norvegicus, iv, I.V., read-out: degree (%) of protection, PCA test
[5] = Rattus norvegicus, Oral, read-out: degree (%) of protection, PCA test

O=c1[nH]cnc2cc3ccccc3cc12 [Benzo[g]quinazolin-4(3H)-one, reference compound]
inhibition in vivo at 3 mg/kg [1, 4]: 31% | bronchodilator activity (bronchi): active as a bronchodilator

CCOC(=O)c1nc2nc3cc(OC)c(OC)cc3cc2c(=O)[nH]1 [COOC2 H5/H/H/OCH3/OCH3/H, Ethyl 7,8-dimethoxypyrimido[4,5-b]quinolin-4(3H)-one-2-carboxylate]
inhibition in vivo at 0.003 mg/kg ([1]; Rattus norvegicus, iv, I.V., 0.003 mg/kg, read-out: degree (%) of protection, PCA test): 36% | inhibition in vivo at 0.01 mg/kg ([1]; Rattus norvegicus, iv, I.V., 0.01 mg/kg, read-out: degree (%) of protection, PCA test): 70% | inhibition in vivo at 0.03 mg/kg ([1]; Rattus norvegicus, iv, I.V., 0.03 mg/kg, read-out: degree (%) of protection, PCA test): 75% | inhibition in vivo at 0.1 mg/kg [1, 4]: 90% | inhibition in vivo at 0.3 mg/kg [1, 4]: 90% | inhibition in vivo at 1 mg/kg [1, 4]: 100% | minimal effective dose ([1]; Rattus norvegicus, iv, read-out: intravenously active at a level as low as): 0.003 mg/kg | inhibition in vivo at 0.03 mg/kg ([1]; Rattus norvegicus, Oral, 0.03 mg/kg (so in the source), read-out: degree (%) of protection, PCA test): 30% | inhibition in vivo at 1 mg/kg [1, 5]: 51% | inhibition in vivo at 3 mg/kg [1, 5]: 75% | inhibition in vivo at 10 mg/kg [1, 5]: 80% | routes of administration by which active ([1]; rat, in vivo): active via the oral, intravenous, intraperitoneal and inhalation routes of administration | concentration of solutions giving concentration related responses by aerosol (PCA reaction): 0.3 to 30 mg/mL | hypotension and bradycardia [2]: marked but transient hypotension and bradycardia | intravenous dose that did not cause death in mice ([3]; intravenous, mice): 1000 mg/kg | toxicity ([3]; mouse, in vivo): relatively free of toxicity

O=C(O)c1cc(=O)c2c(OCC(O)COc3cccc4oc(C(=O)O)cc(=O)c34)cccc2o1 [Disodium chromoglycate, 1,3-bis-(2-carboxychromon-5-yloxy)-2-hydroxypropane, reference compound]
inhibition in vivo at 0.1 mg/kg [1, 4]: 19% | inhibition in vivo at 0.3 mg/kg [1, 4]: 29% | inhibition in vivo at 1 mg/kg [1, 4]: 56% | inhibition in vivo at 3 mg/kg [1, 4]: 78% | inhibition in vivo at 10 mg/kg [1, 4]: 89% | inhibition in vivo at 30 mg/kg ([1]; Rattus norvegicus, iv, I.V., 30 mg/kg, read-out: degree (%) of protection, PCA test): 99% | inhibition in vivo at 100 mg/kg [1, 4]: 100% | inhibition in vivo at 100 mg/kg [1, 5]: 0% | bronchodilator activity (bronchi): not a bronchodilator | efficacy by route of administration (bronchial asthma): lack of oral efficacy

CN[C@@H](C)[C@H](O)c1ccccc1 [ephedrine]
bronchodilator activity (bronchi): orally efficacious bronchodilator

CNC[C@H](O)c1ccc(O)c(O)c1 [epinephrine]
bronchodilator activity (bronchi): bronchodilator effects

CC(C)NCC(O)c1ccc(O)c(O)c1 (stereo not drawn) [isoproterenol]
bronchodilator activity (bronchi): potent aerosol bronchodilator

CC(C)(C)NCC(O)c1ccc(O)c(CO)c1 (stereo not drawn) [solbutamol]
bronchodilator activity (bronchi): potent bronchodilator of prolonged duration, and active via both oral and aerosol administration

Cn1c(=O)c2[nH]cnc2n(C)c1=O [theophylline]
bronchodilator activity (bronchi): generally less potent than the sympathomimetic amines such as isoproterenol and solbutamol, and are ineffective in aerosol administration
